Like-named read-outs stand apart in the source and are kept apart here.
What was measured:
Type in all cases: in vivo
Spodoptera littoralis = Spodoptera littoralis (Egyptian cotton leaf worm) cotton leaf disc test; details: foliar, 72 h, read-out: control (at least one of mortality, anti-feedant effect, and growth inhibition)
Protocol: Spodoptera littoralis (Egyptian Cotton Leaf Worm)
Cotton leaf discs were placed on agar in 24-well microtiter plates and sprayed with aqueous test solutions prepared from 10′000 ppm DMSO stock solutions. After drying the leaf discs were infested with five L1 larvae. The samples were assessed for mortality, anti-feedant effect, and growth inhibition in comparison to untreated samples 3 days after infestation. Control of Spodoptera littoralis by a test sample is when at least one of mortality, anti-feedant effect, and growth inhibition is higher than the untreated sample.

Plutella xylostella = Plutella xylostella (diamond back moth) artificial diet test; details: 120 h, read-out: effect in at least one of the two categories (mortality or growth inhibition)
Protocol: Plutella xylostella (Diamond Back Moth):
24-well microtiter plates with artificial diet were treated with aqueous test solutions prepared from 10′000 ppm DMSO stock solutions by pipetting. After drying, the plates were infested with L2 larvae (10 to 15 per well). The samples were assessed for mortality and growth inhibition in comparison to untreated samples 5 days after infestation. The following compounds gave an effect of at least 80% in at least one of the two categories (mortality or growth inhibition) at an application rate of 200 ppm: […]

Diabrotica Balteata = assay: Diabrotica balteata (corn root worm) maize sprout test; details: 96 h, read-out: effect in at least one of the two categories (mortality or growth inhibition)
Protocol: Diabrotica Balteata, (Corn Root Worm)
Maize sprouts, placed on an agar layer in 24-well microtiter plates were treated with aqueous test solutions prepared from 10′000 ppm DMSO stock solutions by spraying. After drying, the plates were infested with L2 larvae (6 to 10 per well). The samples were assessed for mortality and growth inhibition in comparison to untreated samples 4 days after infestation. The following compounds gave an effect of at least 80% in at least one of the two categories (mortality or growth inhibition) at an application rate of 200 ppm: […]

Thrips tabaci = Thrips tabaci (onion thrips) sunflower leaf disc test; details: foliar, 144 h
Protocol: Thrips tabaci (Onion Thrips):
Sunflower leaf discs were placed on agar in 24-well microtiter plates and sprayed with aqueous test solutions prepared from 10′000 ppm DMSO stock solutions. After drying the leaf discs were infested with a thrips population of mixed ages. The samples were assessed for mortality 6 days after infestation.

Tetranychus urticae = Tetranychus urticae (two-spotted spider mite) bean leaf disc test; details: foliar, 192 h
Protocol: Tetranychus urticae (Two-Spotted Spider Mite):
Bean leaf discs on agar in 24-well microtiter plates were sprayed with aqueous test solutions prepared from 10′000 ppm DMSO stock solutions. After drying the leaf discs were infested with a mite population of mixed ages. The samples were assessed for mortality on mixed population (mobile stages) 8 days after infestation.

[1] = application rate 200 ppm, cotton leaf discs, L1 larvae, 3 days after infestation
[2] = application rate 200 ppm, artificial diet, L2 larvae, 5 days after infestation
[3] = application rate 200 ppm, maize sprouts, L2 larvae, 4 days after infestation
[4] = application rate 200 ppm, sunflower leaf discs, population of mixed ages, 6 days after infestation, read-out: mortality
[5] = application rate 200 ppm, bean leaf discs, mixed population (mobile stages), 8 days after infestation, read-out: mortality

Cc1cc(C2=NO[C@@](c3cc(Cl)c(F)c(Cl)c3)(C(F)(F)F)C2)ccc1C(=O)N[C@H]1CC(Br)=NO1 (single isomer, unassigned) [Compound A146]
≥ 80%: percent control (mortality, anti-feedant effect or growth inhibition) at 200 ppm (Spodoptera littoralis) | percent effect (mortality or growth inhibition) at 200 ppm (Plutella xylostella) | percent effect (mortality or growth inhibition) at 200 ppm (Diabrotica Balteata) | mortality at 200 ppm (Thrips tabaci) | mortality at 200 ppm (Tetranychus urticae)

Cc1cc(C2=NO[C@@](c3cc(Cl)c(F)c(Cl)c3)(C(F)(F)F)C2)ccc1C(=O)NC1CC(/C=N/O)=NO1 (some centres unmarked) [Compound A118]
≥ 80%: percent control (mortality, anti-feedant effect or growth inhibition) at 200 ppm (Spodoptera littoralis) | percent effect (mortality or growth inhibition) at 200 ppm (Plutella xylostella) | percent effect (mortality or growth inhibition) at 200 ppm (Diabrotica Balteata) | mortality at 200 ppm (Thrips tabaci) | mortality at 200 ppm (Tetranychus urticae)

CCOC1=NO[C@@H](NC(=O)c2ccc(C3=NO[C@@](c4cc(Cl)cc(Cl)c4)(C(F)(F)F)C3)cc2C)C1 (single isomer, unassigned) [Compound A159]
≥ 80%: percent control (mortality, anti-feedant effect or growth inhibition) at 200 ppm (Spodoptera littoralis) | percent effect (mortality or growth inhibition) at 200 ppm (Plutella xylostella) | percent effect (mortality or growth inhibition) at 200 ppm (Diabrotica Balteata) | mortality at 200 ppm (Thrips tabaci) | mortality at 200 ppm (Tetranychus urticae)

COCC1=NOC(N(C(=O)OC(C)(C)C)C(=O)c2ccc(C3=NO[C@@](c4cc(Cl)c(F)c(Cl)c4)(C(F)(F)F)C3)cc2C)C1 (some centres unmarked) [Compound A088]
≥ 80%: percent control (mortality, anti-feedant effect or growth inhibition) at 200 ppm (Spodoptera littoralis) | percent effect (mortality or growth inhibition) at 200 ppm (Plutella xylostella) | percent effect (mortality or growth inhibition) at 200 ppm (Diabrotica Balteata) | mortality at 200 ppm (Thrips tabaci) | mortality at 200 ppm (Tetranychus urticae)

COC1=NO[C@@H](NC(=O)c2ccc(C3=NO[C@@](c4cc(Cl)c(F)c(Cl)c4)(C(F)(F)F)C3)cc2C)C1 (single isomer, unassigned) [Compound A151]
≥ 80%: percent control (mortality, anti-feedant effect or growth inhibition) at 200 ppm (Spodoptera littoralis) | percent effect (mortality or growth inhibition) at 200 ppm (Plutella xylostella) | percent effect (mortality or growth inhibition) at 200 ppm (Diabrotica Balteata) | mortality at 200 ppm (Thrips tabaci) | mortality at 200 ppm (Tetranychus urticae)

C/C(N)=N/OC1=NOC(NC(=O)c2ccc(C3=NO[C@@](c4cc(Cl)c(F)c(Cl)c4)(C(F)(F)F)C3)cc2C)C1 (stereo partly drawn) [Compound A143, N-[3-[(Z)-1-aminoethylideneamino]oxy-4,5-dihydroisoxazol-5-yl]-4-[(5S)-5-(3,5-dichloro-4-fluoro-phenyl)-5-(trifluoromethyl)-4H-isoxazol-3-yl]-2-methyl-benzamide]
≥ 80%: percent control (mortality, anti-feedant effect or growth inhibition) at 200 ppm (Spodoptera littoralis) | percent effect (mortality or growth inhibition) at 200 ppm (Plutella xylostella) | percent effect (mortality or growth inhibition) at 200 ppm (Diabrotica Balteata) | mortality at 200 ppm (Thrips tabaci) | mortality at 200 ppm (Tetranychus urticae)

CCOC(=O)C1=NOC(NC(=O)c2ccc(C3=NO[C@@](c4cc(Cl)c(F)c(Cl)c4)(C(F)(F)F)C3)cc2C)C1 (stereo partly drawn) [Compound A007, ethyl 5-[[4-[(5S)-5-(3,5-dichloro-4-fluoro-phenyl)-5-(trifluoromethyl)-4H-isoxazol-3-yl]-2-methyl-benzoyl]amino]-4,5-dihydroisoxazole-3-carboxylate]
≥ 80%: percent control (mortality, anti-feedant effect or growth inhibition) at 200 ppm (Spodoptera littoralis) | percent effect (mortality or growth inhibition) at 200 ppm (Plutella xylostella) | percent effect (mortality or growth inhibition) at 200 ppm (Diabrotica Balteata) | mortality at 200 ppm (Thrips tabaci) | mortality at 200 ppm (Tetranychus urticae)

CCOC1=NOC(N(C(=O)c2ccc(C3=NO[C@@](c4cc(Cl)c(F)c(Cl)c4)(C(F)(F)F)C3)cc2C)[C@H](C)c2ccc(OC)cc2)C1 (some centres unmarked) [Compound A131]
≥ 80%: percent control (mortality, anti-feedant effect or growth inhibition) at 200 ppm (Spodoptera littoralis; [1]) | percent effect (mortality or growth inhibition) at 200 ppm (Plutella xylostella; [2]) | percent effect (mortality or growth inhibition) at 200 ppm (Diabrotica Balteata; [3]) | mortality at 200 ppm (Thrips tabaci; [4]) | mortality at 200 ppm (Tetranychus urticae; [5])

CCOC(=O)C1=NOC(N(C=O)C(=O)c2ccc(C3=NO[C@@](c4cc(Cl)c(F)c(Cl)c4)(C(F)(F)F)C3)cc2C)C1 (stereo partly drawn) [Compound A006, ethyl 5-[[4-[(5S)-5-(3,5-dichloro-4-fluoro-phenyl)-5-(trifluoromethyl)-4H-isoxazol-3-yl]-2-methyl-benzoyl]-formyl-amino]-4,5-dihydroisoxazole-3-carboxylate]
≥ 80%: percent control (mortality, anti-feedant effect or growth inhibition) at 200 ppm (Spodoptera littoralis) | percent effect (mortality or growth inhibition) at 200 ppm (Plutella xylostella) | percent effect (mortality or growth inhibition) at 200 ppm (Diabrotica Balteata) | mortality at 200 ppm (Thrips tabaci)

Cc1cc(C2=NO[C@@](c3cc(Cl)c(F)c(Cl)c3)(C(F)(F)F)C2)ccc1C(=O)N(C(=O)OC(C)(C)C)C1CC(COC2CCCCO2)=NO1 (some centres unmarked) [Compound A068]
≥ 80%: percent control (mortality, anti-feedant effect or growth inhibition) at 200 ppm (Spodoptera littoralis; [1]) | percent effect (mortality or growth inhibition) at 200 ppm (Plutella xylostella; [2]) | percent effect (mortality or growth inhibition) at 200 ppm (Diabrotica Balteata; [3]) | mortality at 200 ppm (Thrips tabaci; [4]) | mortality at 200 ppm (Tetranychus urticae; [5])

CSC1=NOC(NC(=O)c2ccc(C3=NO[C@@](c4cc(Cl)c(SC)c(Cl)c4)(C(F)(F)F)C3)cc2C)C1 (stereo partly drawn) [Compound A020, 4-[(5S)-5-(3,5-dichloro-4-methylsulfanyl-phenyl)-5-(trifluoromethyl)-4H-isoxazol-3-yl]-2-methyl-N-(3-methylsulfanyl-4,5-dihydroisoxazol-5-yl)benzamide]
≥ 80%: percent control (mortality, anti-feedant effect or growth inhibition) at 200 ppm (Spodoptera littoralis) | percent effect (mortality or growth inhibition) at 200 ppm (Plutella xylostella) | percent effect (mortality or growth inhibition) at 200 ppm (Diabrotica Balteata) | mortality at 200 ppm (Thrips tabaci) | mortality at 200 ppm (Tetranychus urticae)

Cc1cc(C2=NO[C@@](c3cc(Cl)c(Cl)c(Cl)c3)(C(F)(F)F)C2)ccc1C(=O)NC1CC(OS(C)(=O)=O)=NO1 (stereo partly drawn) [Compound A135, [5-[[2-methyl-4-[(5S)-5-(3,4,5-trichlorophenyl)-5-(trifluoromethyl)-4H-isoxazol-3-yl]benzoyl]amino]-4,5-dihydroisoxazol-3-yl] methanesulfonate]
≥ 80%: percent control (mortality, anti-feedant effect or growth inhibition) at 200 ppm (Spodoptera littoralis) | percent effect (mortality or growth inhibition) at 200 ppm (Plutella xylostella) | percent effect (mortality or growth inhibition) at 200 ppm (Diabrotica Balteata) | mortality at 200 ppm (Thrips tabaci) | mortality at 200 ppm (Tetranychus urticae)

O=C(NC1CC(Br)=NO1)c1ccc(C2=NO[C@@](c3cc(Cl)cc(Cl)c3)(C(F)(F)F)C2)cc1Cl (some centres unmarked) [Compound A093]
≥ 80%: percent control (mortality, anti-feedant effect or growth inhibition) at 200 ppm (Spodoptera littoralis) | percent effect (mortality or growth inhibition) at 200 ppm (Plutella xylostella) | percent effect (mortality or growth inhibition) at 200 ppm (Diabrotica Balteata) | mortality at 200 ppm (Thrips tabaci) | mortality at 200 ppm (Tetranychus urticae)

CCS(=O)(=O)C1=NOC(NC(=O)c2ccc(C3=NO[C@@](c4cc(Cl)c(Cl)c(Cl)c4)(C(F)(F)F)C3)cc2C)C1 (some centres unmarked) [Compound A053]
≥ 80%: percent control (mortality, anti-feedant effect or growth inhibition) at 200 ppm (Spodoptera littoralis) | percent effect (mortality or growth inhibition) at 200 ppm (Plutella xylostella) | percent effect (mortality or growth inhibition) at 200 ppm (Diabrotica Balteata) | mortality at 200 ppm (Thrips tabaci) | mortality at 200 ppm (Tetranychus urticae)

COC1=NO[C@@H](N(C(=O)OC(C)(C)C)C(=O)c2ccc(C3=NO[C@@](c4cc(Cl)c(Cl)c(Cl)c4)(C(F)(F)F)C3)cc2C)C1 (single isomer, unassigned) [Compound A153]
≥ 80%: percent control (mortality, anti-feedant effect or growth inhibition) at 200 ppm (Spodoptera littoralis) | percent effect (mortality or growth inhibition) at 200 ppm (Plutella xylostella) | percent effect (mortality or growth inhibition) at 200 ppm (Diabrotica Balteata) | mortality at 200 ppm (Thrips tabaci) | mortality at 200 ppm (Tetranychus urticae)

— patent US10499642B2, “Isoxazoline-substituted benzamides and analogues as insecticides” (SYNGENTA PARTICIPATIONS AG, priority 2015, dated 2019)
